From US12473295B2, “Substituted straight chain spiro derivatives” (Janssen Pharmaceutica NV, priority 2019, dated 2025)
Where a name gives a salt, the structure may show the parent alone. Read-outs that look alike come from different tables or passages of the source.

Key:
[1] = target: menin/MLL (terbium chelate-labeled menin, FITC-MBM1 peptide) (Homo sapiens (Human), UniProt O00255); assay: Menin/MLL homogenous time-resolved fluorescence (HTRF) assay; format: binding;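 further: IC50 from percent inhibition of HTRF signal, normalized between wells without competitor and wells with a saturating competitor that displaces FITC-MBM1 from His-tagged menin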
MEIS1 mRNA = MEIS1 mRNA expression assay (Quantigene Singleplex) in MOLM14 cells; format: cell-based, human; conditions: 48 hours incubation;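 further: MEIS1 transcript levels read by probe hybridization and normalized to RPL28 mRNA, with IC50 fitted to fold changes across a rising compound concentration series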
MOLM14 cells = assay: Proliferation assay (spheroid growth, 8 days), MOLM14; format: cell-based, human; conditions: MOLM14, 8 days, read-out: spheroid assay_OneTime MOLM14 IC50;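 further: spheroid size read as confluence by live-cell imaging, compounds added at a range of concentrations with 0.3% DMSO, DMSO-treated wells = 0%, highest reference dose = low control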
KO-52 cells = assay: Proliferation assay (spheroid growth, 8 days), KO-52 control cell line; format: cell-based, human; conditions: read-out: spheroid assay_OneTime KO-52 IC50
In short: (§1)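 IC50 values derive from day-8 spheroid confluence, normalized between DMSO-treated wells and the highest dose of a reference compound, fitted with a variable slope. Cells grew 8 days at 37° C under a compound concentration series in 0.3% DMSO.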

OCI-AML3 cells = assay: Proliferation assay (spheroid growth, 8 days), OCI-AML3; format: cell-based, human; conditions: OCI-AML3, 8 days
In short: as §1

[2] = HTRF-30 min incubation IC50, 30 min incubation

menin/MLL (terbium chelate-labeled menin, FITC-MBM1 peptide), sequence (O00255 other isoform, or with tags, fused parts or gaps): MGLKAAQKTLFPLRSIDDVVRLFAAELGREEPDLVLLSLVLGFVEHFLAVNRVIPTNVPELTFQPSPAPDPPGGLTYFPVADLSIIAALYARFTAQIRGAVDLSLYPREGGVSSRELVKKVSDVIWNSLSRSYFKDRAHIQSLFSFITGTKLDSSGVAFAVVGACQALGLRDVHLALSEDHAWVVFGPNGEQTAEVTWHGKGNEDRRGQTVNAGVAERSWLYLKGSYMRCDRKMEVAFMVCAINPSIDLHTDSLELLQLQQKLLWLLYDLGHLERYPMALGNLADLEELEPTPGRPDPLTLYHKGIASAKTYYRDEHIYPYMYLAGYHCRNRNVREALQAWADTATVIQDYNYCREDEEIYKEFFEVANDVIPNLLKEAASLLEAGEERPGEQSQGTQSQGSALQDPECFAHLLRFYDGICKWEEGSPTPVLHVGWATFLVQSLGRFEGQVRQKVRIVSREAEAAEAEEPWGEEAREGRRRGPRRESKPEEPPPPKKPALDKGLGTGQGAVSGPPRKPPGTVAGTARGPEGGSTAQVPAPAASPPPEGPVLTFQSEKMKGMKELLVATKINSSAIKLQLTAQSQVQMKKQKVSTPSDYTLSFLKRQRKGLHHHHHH

IC50 [1, 2] [nM]	IC50 (MEIS1 mRNA; Homo sapiens, MOLM-14, 48 h) [nM]	IC50 (MOLM14 cells; Homo sapiens, MOLM-14, […]) [nM]	IC50 (OCI-AML3 cells; Homo sapiens, OCI-AML-3, […]) [nM]	IC50 ([1]; read-out: HTRF-30 min incubation IC50, 30 min incubation) [nM]	IC50 (MEIS1 mRNA) [nM]	IC50 (MOLM14 cells) [nM]	IC50 (OCI-AML3 cells) [nM]	Compound	IC50 (KO-52 cells; Homo sapiens, […]) [nM]	IC50 (KO-52 cells) [nM]
0.37	360	320	870					CCN(C(=O)c1cc(F)ccc1Oc1nncnc1N1CCC2(C1)CN([C@H](CCNC(C)C)C(C)C)C2)C(C)C (single isomer, unassigned) [Compound 229, (*R)—N-ethyl-5-fluoro-N-isopropyl-2-((5-(2-(1-(isopropylamino)-4-methylpentan-3-yl)-2,6-diazaspiro[3.4]octan-6-yl)-1,2,4-triazin-6-yl)oxy)benzamide fumarate]	> 15000	
0.13	17	38	120					CCN(C(=O)c1cc(F)ccc1Oc1nncnc1N1CCC2(C1)CN([C@H](CCCN(C)C[C@H](COC)OC)C(C)C)C2)C(C)C (single isomer, unassigned) [Compound 176, 2-((5-(2-((R)-6-(((*R)-2,3-dimethoxypropyl)(methyl)amino)-2-methylhexan-3-yl)-2,6-diazaspiro[3.4]octan-6-yl)-1,2,4-triazin-6-yl)oxy)-N-ethyl-5-fluoro-N-isopropylbenzamide fumarate]	> 15000	
0.077	130	18	150					CCN(C(=O)c1cc(F)ccc1Oc1nncnc1N1CCC2(C1)CN([C@H](C[C@H](O)CN(C)CCOC)C(C)C)C2)C(C)C (single isomer, unassigned) [Compound 352, N-ethyl-5-fluoro-2-((5-(2-((3*R,5S)-5-hydroxy-6-((2-methoxyethyl)(methyl)amino)-2-methylhexan-3-yl)-2,6-diazaspiro[3.4]octan-6-yl)-1,2,4-triazin-6-yl)oxy)-N-isopropylbenzamide fumarate]	> 15000	
~0.36	110	230	190					CCN(C(=O)c1cc(F)ccc1Oc1nncnc1N1CCC2(C1)CN([C@H](CCCN(C)[C@H](C)CC(=O)N(C)C)C(C)C)C2)C(C)C (single isomer, unassigned) [Compound 184, 2-((5-(2-((R)-6-(((*R)-4-(dimethylamino)-4-oxobutan-2-yl)(methyl)amino)-2-methylhexan-3-yl)-2,6-diazaspiro[3.4]octan-6-yl)-1,2,4-triazin-6-yl)oxy)-N-ethyl-5-fluoro-N-isopropylbenzamide fumarate]	3000	
0.079	11	12	130					CCN(CC)C[C@H](O)C[C@H](C(C)C)N1CC2(CCN(c3ncnnc3Oc3ccc(F)cc3C(=O)N(CC)C(C)C)C2)C1 (single isomer, unassigned) [Compound 334, 2-((5-(2-((3*R,5*R)-6-(diethylamino)-5-hydroxy-2-methylhexan-3-yl)-2,6-diazaspiro[3.4]octan-6-yl)-1,2,4-triazin-6-yl)oxy)-N-ethyl-5-fluoro-N-isopropylbenzamide fumarate]	> 15000	
~0.36	50	23	73					CCN(C(=O)c1cc(F)ccc1Oc1nncnc1N1CCC2(C1)CN([C@H](CCCNC[C@H](O)COC)C(C)C)C2)C(C)C [Compound 284, N-ethyl-5-fluoro-2-((5-(2-((R)-6-(((S)-2-hydroxy-3-methoxypropyl)amino)-2-methylhexan-3-yl)-2,6-diazaspiro[3.4]octan-6-yl)-1,2,4-triazin-6-yl)oxy)-N-isopropylbenzamide formate]	> 15000	
0.38	230	200	640					CCN(C(=O)c1cc(F)ccc1Oc1nncnc1N1CCC2(C1)CN([C@H](CCN(C)CCCO)C(C)C)C2)C(C)C (single isomer, unassigned) [Compound 274, (*R)—N-ethyl-5-fluoro-2-((5-(2-(1-((3-hydroxypropyl)(methyl)amino)-4-methylpentan-3-yl)-2,6-diazaspiro[3.4]octan-6-yl)-1,2,4-triazin-6-yl)oxy)-N-isopropylbenzamide]	> 15000	
0.053	~8.2	7	46					CCN(C(=O)c1cc(F)ccc1Oc1nncnc1N1CCC2(C1)CN([C@H](C[C@@H](O)CN(C)CCOC)C(C)C)C2)C(C)C (single isomer, unassigned) [Compound 356, N-ethyl-5-fluoro-2-((5-(2-((3*R,5R)-5-hydroxy-6-((2-methoxyethyl)(methyl)amino)-2-methylhexan-3-yl)-2,6-diazaspiro[3.4]octan-6-yl)-1,2,4-triazin-6-yl)oxy)-N-isopropylbenzamide fumarate]	> 15000	
~0.59	61	160	810					CCCN(C)C[C@H](O)C[C@H](C(C)C)N1CC2(CCN(c3ncnnc3Oc3ccc(F)cc3C(=O)N(CC)C(C)C)C2)C1 (single isomer, unassigned) [Compound 386, N-ethyl-5-fluoro-2-((5-(2-((3*R,5*R)-5-hydroxy-2-methyl-6-(methyl(propyl)amino)hexan-3-yl)-2,6-diazaspiro[3.4]octan-6-yl)-1,2,4-triazin-6-yl)oxy)-N-isopropylbenzamide fumarate]	9600	

Continued, compound first:

Compound	IC50 [1, 2] [nM]	IC50 (MEIS1 mRNA; Homo sapiens, MOLM-14, 48 h) [nM]	IC50 (MOLM14 cells; Homo sapiens, MOLM-14, […]) [nM]	IC50 (OCI-AML3 cells; Homo sapiens, OCI-AML-3, […]) [nM]	IC50 ([1]; read-out: HTRF-30 min incubation IC50, 30 min incubation) [nM]	IC50 (MEIS1 mRNA) [nM]	IC50 (MOLM14 cells) [nM]	IC50 (OCI-AML3 cells) [nM]	IC50 (KO-52 cells; Homo sapiens, […]) [nM]	IC50 (KO-52 cells) [nM]
CCN(C(=O)c1cc(F)ccc1Oc1nncnc1N1CCC2(C1)CN([C@H](CCCN(C)[C@@H](CO)COC)C(C)C)C2)C(C)C [Compound 167, N-ethyl-5-fluoro-2-((5-(2-((R)-6-(((S)-1-hydroxy-3-methoxypropan-2-yl)(methyl)amino)-2-methylhexan-3-yl)-2,6-diazaspiro[3.4]octan-6-yl)-1,2,4-triazin-6-yl)oxy)-N-isopropylbenzamide fumarate]	0.16	18	17	65					> 15000	
CC(C)[C@H](CCCN(C)C)N1CC2(CCN(c3ncnnc3Oc3ccc(F)cc3C(=O)N(C(C)C)C(C)C)C2)C1 (single isomer, unassigned) [Compound 103, (*S)-2-((5-(2-(6-(dimethylamino)-2-methylhexan-3-yl)-2,6-diazaspiro[3.4]octan-6-yl)-1,2,4-triazin-6-yl)oxy)-5-fluoro-N,N-diisopropylbenzamide fumarate]	2.43	420	290	1360					> 15000	
N-ethyl-2-((5-(2-((3*R,5*R)-6-(ethyl(methyl)amino)-5-methoxy-2-methylhexan-3-yl)-2, diazaspiro[3.4]octan-6-yl)-1,2,4-triazin-6-yl)oxy)-5-fluoro-N-isopropylbenzamide [Compound 311]					1.01	~630	510	2880		> 15000
CCN(C(=O)c1cc(F)ccc1Oc1nncnc1N1CCC2(C1)CN(C(CCCNCC(C)(C)OC)C(C)C)C2)C(C)C (stereo not shown) [Compound 69, N-ethyl-5-fluoro-N-isopropyl-2-((5-(2-(6-((2-methoxy-2-methylpropyl)amino)-2-methylhexan-3-yl)-2,6-diazaspiro[3.4]octan-6-yl)-1,2,4-triazin-6-yl)oxy)benzamide]	0.099	16	20	87					7180	
CCCN(C)CCC[C@H](C(C)C)N1CC2(CCN(c3ncnnc3Oc3ccc(F)cc3C(=O)N(CC)C(C)C)C2)C1 (single isomer, unassigned) [Compound 127, (*R)—N-ethyl-5-fluoro-N-isopropyl-2-((2-methyl-6-(methyl(propyl)amino)hexan-3-yl)-2,6-diazaspiro[3.4]octan-6-yl)-1,2,4-triazin-6-yl)oxy)benzamide fumarate]	0.089	44	26	140					11300	
CCN(C(=O)c1cc(F)ccc1Oc1nncnc1N1CCC2(C1)CN([C@H](CCCNCC(C)(C)OC)C(C)C)C2)C(C)C [Compound 135, (R)-N-ethyl-5-fluoro-N-isopropyl-2-((5-(2-(6-((2-methoxy-2-methylpropyl)amino)-2-methylhexan-3-yl)-2,6-diazaspiro[3.4]octan-6-yl)-1,2,4-triazin-6-yl)oxy)benzamide fumarate]	0.057	16	13	230					9690	
CCN(C(=O)c1cc(F)ccc1Oc1nncnc1N1CCC2(C1)CN([C@H](CCCNC(=O)NC)C(C)C)C2)C(C)C [Compound 8, (R)-N-ethyl-5-fluoro-N-isopropyl-2-((5-(2-(2-methyl-6-(3-methylureido)hexan-3-yl)-2,6-diazaspiro[3.4]octan-6-yl)-1,2,4-triazin-6-yl)oxy)benzamide]	0.43	~650	1020	2150					> 15000	
COCCN(C)CCC[C@H](C(C)C)N1CC2(CCN(c3ccnnc3Oc3ccc(F)cc3C(=O)N(C(C)C)C(C)C)C2)C1 (single isomer, unassigned) [Compound 88, (*R)-5-fluoro-N,N-isopropyl-2-((4-(2-(6-((2-methoxyethyl)(methyl)amino)-methylhexan-3-yl)-2,6-diazaspiro[3.4]octan-6-yl)pyridazin-3-yl)oxy)benzamide oxalate]	0.083	130	120	810					14000	
